{"source": "patent US20140018750A1", "about": "“METHOD AND DEVICE OR PHARMACEUTICAL COMPOSITIONS FOR THE TRANSDERMAL DELIVERY OF MAGNESIUM DIRECTLY TO THE NEUROMUSCULAR JUNCTION FOR THE TREATMENT OF MUSCLE CRAMPING” (priority 2012, published 2014)", "key": {"sciatica": {"test_system": "sciatica", "conditions": "Patient Michael, cream composed of aloe combined with 8% by MW of magnesium sulfate"}}}
{"smiles": "O=S(=O)([O-])[O-].[Mg+2]", "note": "[magnesium sulfate]", "values": [{"measurement": "time to relief", "setting": "muscle cramping; Patient Doris, reoccurring severe muscle cramps in the right foot, liquid solution, 8% by MW of magnesium sulfate, applied to the area", "result": "three"}, {"measurement": "time until began to experience relief", "setting": "muscle cramping; Patient Henry, severe muscle cramps in the upper right arm after exertion, liquid form of 8% by MW of magnesium sulfate applied directly", "result": "three"}, {"measurement": "time to relief from both symptoms", "setting": "muscle cramping; Patient Norma, severe leg cramps with restless leg syndrome, towel soaked in composition with 8% by MW of magnesium sulfate applied to affected area", "result": "four"}, {"measurement": "time to relief", "setting": "sciatica", "result": "six"}]}
